Our source for the IC50 and inhibition values is ChEMBL document CHEMBL1126955, “Substituted thiopyrano[2,3,4-c,d]indoles as potent, selective, and orally active inhibitors of 5-lipoxygenase. Synthesis and biological evaluation of L-691,816” (J Med Chem, 1993).

pIC50: −log10 of the molar value.

For one experiment, the species on record is Homo sapiens. The experiment is described as follows: Tested in vitro for the inhibition of LTB4 biosynthesis in [Ca(2+)]-ionophore-activated human polymorphonuclear leukocytes; (Result of a single titration). The format is functional.
Experiment [1] concerns the target T1, Polyunsaturated fatty acid 5-lipoxygenase (Rattus norvegicus) (UniProt P12527).
T1 sequence (whole entry): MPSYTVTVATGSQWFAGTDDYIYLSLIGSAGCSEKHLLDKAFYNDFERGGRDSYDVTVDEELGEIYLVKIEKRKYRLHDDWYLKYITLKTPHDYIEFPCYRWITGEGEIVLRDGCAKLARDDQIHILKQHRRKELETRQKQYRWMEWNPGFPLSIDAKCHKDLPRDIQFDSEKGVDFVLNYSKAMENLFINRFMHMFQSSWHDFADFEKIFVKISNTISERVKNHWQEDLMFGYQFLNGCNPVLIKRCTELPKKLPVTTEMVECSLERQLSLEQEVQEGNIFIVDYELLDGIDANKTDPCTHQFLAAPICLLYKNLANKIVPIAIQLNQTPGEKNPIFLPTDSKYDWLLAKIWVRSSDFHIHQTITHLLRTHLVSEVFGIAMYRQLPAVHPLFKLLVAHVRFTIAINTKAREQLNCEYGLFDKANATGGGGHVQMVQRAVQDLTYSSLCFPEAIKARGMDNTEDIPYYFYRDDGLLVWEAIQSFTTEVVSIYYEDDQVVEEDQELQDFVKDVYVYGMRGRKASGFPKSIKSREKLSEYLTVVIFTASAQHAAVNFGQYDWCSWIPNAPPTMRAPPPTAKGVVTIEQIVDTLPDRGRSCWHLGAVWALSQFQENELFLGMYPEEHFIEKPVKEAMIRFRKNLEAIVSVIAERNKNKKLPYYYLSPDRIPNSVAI
The experiment is described as follows: Tested in vitro for the inhibition of 5-lipoxygenase in cell-free preparations from rat PMN leukocytes. The conditions noted are these: concentration not given here.

Experiment [2] deals with T2, Polyunsaturated fatty acid 5-lipoxygenase (Homo sapiens, UniProt P09917).
T2 sequence (P09917 whole entry): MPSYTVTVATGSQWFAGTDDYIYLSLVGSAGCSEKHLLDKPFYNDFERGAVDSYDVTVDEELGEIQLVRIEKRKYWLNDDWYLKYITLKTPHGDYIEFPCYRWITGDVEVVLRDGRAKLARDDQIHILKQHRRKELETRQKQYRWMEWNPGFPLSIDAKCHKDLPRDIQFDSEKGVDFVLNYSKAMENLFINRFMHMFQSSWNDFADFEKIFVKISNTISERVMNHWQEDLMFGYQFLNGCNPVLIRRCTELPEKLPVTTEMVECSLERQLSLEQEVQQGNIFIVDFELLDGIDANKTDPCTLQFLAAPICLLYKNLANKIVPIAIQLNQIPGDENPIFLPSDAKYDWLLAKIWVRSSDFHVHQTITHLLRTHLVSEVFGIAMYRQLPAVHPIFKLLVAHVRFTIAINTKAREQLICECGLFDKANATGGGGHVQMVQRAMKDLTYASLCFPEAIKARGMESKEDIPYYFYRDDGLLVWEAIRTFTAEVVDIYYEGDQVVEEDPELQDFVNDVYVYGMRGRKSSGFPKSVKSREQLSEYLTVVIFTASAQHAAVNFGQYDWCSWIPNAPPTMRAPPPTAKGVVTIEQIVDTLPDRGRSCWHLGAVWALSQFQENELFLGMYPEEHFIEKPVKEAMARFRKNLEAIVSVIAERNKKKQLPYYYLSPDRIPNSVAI
The experiment is described as follows: In vitro inhibition of LTB4 biosynthesis in [Ca(2+)]-ionophore-activated human polymorphonuclear leukocytes. The format is functional.

The target of experiment [3] is T3, Polyunsaturated fatty acid 5-lipoxygenase (Rattus norvegicus, UniProt P12527).
T3 sequence (P12527 whole entry): T1 sequence (whole entry)
In words: In vitro test for inhibition of 5-lipoxygenase in cell-free preparations from rat PMN leukocytes.

Experiment [4] has as its target T4, Arachidonate 5-lipoxygenase-activating protein (Homo sapiens, UniProt P20292).
T4 sequence (P20292 whole entry): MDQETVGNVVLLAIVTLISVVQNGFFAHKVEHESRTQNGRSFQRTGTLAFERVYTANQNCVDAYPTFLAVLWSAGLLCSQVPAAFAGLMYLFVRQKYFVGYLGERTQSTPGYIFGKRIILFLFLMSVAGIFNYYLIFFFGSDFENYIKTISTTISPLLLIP
The experiment is described as follows: Tested for inhibition of leukotriene biosynthesis by binding to 5-lipoxygenase activating protein.

One may read the pIC50 as the negative decadic logarithm of the IC50, by convention in mol/L. Higher therefore signals a small IC50. In turn, `CC1Cc2c(OCc3ccc(-c4ccccc4)cn3)ccc3c2c(c(CC(C)(C)CC(=O)N(C)O)n3Cc2ccc(Cl)cc2)S1` (centres undefined) gave a pIC50 in the experiment listed under Homo sapiens of 6.30.
As usually defined, the inhibition is the share of the control response that was lost under treatment. Low values mean little suppression, high ones strong suppression. Take `CC1Cc2c(OCc3ccc(-c4ccccc4)cn3)ccc3[nH]c(CC(C)(C)C(=O)O)c(c23)S1` (centres undefined): the inhibition in experiment [1] was 23%. Also, the pIC50 in experiment [2] was 6.30.
As to `CC1Cc2c(OCc3ccc4ccccc4n3)ccc3c2c(c(CC(C)(C)C(=O)O)n3Cc2ccc(Cl)cc2)S1` (centres undefined), the pIC50 in experiment [3] was 6.22; in experiment [2], 8.52.
On the same counts, the results for `CC1Cc2c(OCc3cc(-c4ccccc4)ccn3)ccc3c2c(c(CC(C)(C)C(=O)O)n3Cc2ccc(Cl)cc2)S1` (centres undefined) are 5.70 and 7.10.
As for `CC(C)(Cc1c2c3c(c(OCc4ccc(-c5ccccc5)cn4)ccc3n1Cc1ccc(Cl)cc1)CCCS2)C(=O)O`, in experiment [1], the inhibition worked out at 20%. The same compound had a pIC50 in experiment [2] of 6.80.
`CC1Cc2c(OCc3cc4ccccc4cn3)ccc3c2c(c(CC(C)(C)C(=O)O)n3Cc2ccc(Cl)cc2)S1` (centres undefined): the pIC50 in experiment [4] was 6.41; in experiment [3], 6.40; in experiment [2], 7.70.
In the case of `CC1Cc2c(OCc3ccc(-c4ccccc4)cn3)ccc3c2c(c(CC(C)(C)C(=O)O)n3CCCc2ccccc2)S1` (centres undefined), the pIC50 was 7.46 in experiment [3] and 7.64 in experiment [2].
On the same counts, the results for `C[C@@H]1Cc2c(OCc3ccc(-c4ccccc4)cn3)ccc3c2c(c(CC(C)(C)C(=O)O)n3Cc2ccc(Cl)cc2)[S+]1[O-]` (some centres undefined) are 6.48 and 6.08.
The matching figures for `CC1Cc2c(OCCc3ccc(-c4ccccc4)cn3)ccc3c2c(c(CC(C)(C)Cc2nnn[nH]2)n3Cc2ccc(Cl)cc2)S1` (centres undefined): 5.92 and 7.34.
The matching figures for `CC1Cc2c(SCc3ccc(-c4ccccc4)cn3)ccc3c2c(c(CC(C)(C)Cc2nnn[nH]2)n3Cc2ccc(Cl)cc2)S1` (centres undefined): 6.92 and 7.96.
As to `CCCCc1ccc(COc2ccc3c4c2CC(C)Sc4c(CC(C)(C)C(=O)O)n3Cc2ccc(Cl)cc2)nc1` (centres undefined), the pIC50 in experiment [3] was 6.30; in experiment [2], 7.38.
On the same counts, the results for `CC1(C)Cc2c(OCc3ccc(-c4ccccc4)cn3)ccc3c2c(c(CC(C)(C)C(=O)O)n3Cc2ccc(Cl)cc2)S1` are 5.52 and 7.06.
On the same counts, the results for `CC1Cc2c(OCc3ccc(-c4ccccc4)cn3)ccc3c2c(c(CC(C)(C)CCC(=O)O)n3Cc2ccc(Cl)cc2)S1` (centres undefined) are 6.89 and 7.72.
The matching figures for `CC1Cc2c(OCc3ccc(C#N)cn3)ccc3c2c(c(CC(C)(C)C(=O)O)n3Cc2ccc(Cl)cc2)S1` (centres undefined): 6.46 and 7.18.
Turning to `CC1Cc2c(OCc3ccc(-c4ccccc4)cn3)ccc3c2c(c(CC(C)(C)C(=O)O)n3Cc2ccc(Cl)cc2)S1(=O)=O` (centres undefined), the pIC50 in experiment [3] is 6.49; in experiment [2], 6.68.
On the same counts, the results for `CC1Cc2c(OCc3ccc(-c4ccccc4)cc3)ccc3c2c(c(CC(C)(C)C(=O)O)n3Cc2ccc(Cl)cc2)S1` (centres undefined) are 6.00 and 6.78.
Regarding `CCC1Cc2c(OCc3ccc(-c4ccccc4)cn3)ccc3c2c(c(CC(C)(C)C(=O)O)n3Cc2ccc(Cl)cc2)S1` (centres undefined), the pIC50 is 6.89 in experiment [3] and 7.48 in experiment [2].
On the same counts, the results for `CC1Cc2c(OCc3ccc(-c4ccccc4)cn3)ccc3c2c(c(CCC(=O)O)n3Cc2ccc(Cl)cc2)S1` (centres undefined) are 6.85 and 7.42.
Take `COc1ccc(Cn2c(CC(C)(C)C(=O)O)c3c4c(c(OCc5ccc(-c6ccccc6)cn5)ccc42)CC(C)S3)cc1` (centres undefined): the negative-log IC50 (pIC50) in experiment [3] is 7.40; in experiment [2], 7.55.
Consider `CC1Cc2c(OCc3ccc(-c4ccccc4)cn3)ccc3c2c(c(CC(=O)O)n3Cc2ccc(Cl)cc2)S1` (centres undefined), for which the pIC50 in experiment [3] was 6.70; in experiment [2], 7.43.
In the case of `CC1Cc2c(OCc3ccc(-c4ccccc4)cn3)ccc3c2c(c(CC(C)(C)C(=O)O)n3C(=O)c2ccccc2)S1` (centres undefined), the pIC50 was 6.85 in experiment [3] and 7.22 in the experiment listed under Homo sapiens.
`CC1Cc2c(OCc3ccccn3)ccc3c2c(c(CC(C)(C)C(=O)O)n3Cc2ccc(Cl)cc2)S1` (centres undefined): the results for the pIC50 in experiment [4], in experiment [3] and in experiment [2] were 6.96, 6.20 and 7.46, respectively.
On to `CC1Cc2c(OCc3ccc(-c4ccccc4)cn3)ccc3c2c(c(C(=O)O)n3Cc2ccc(Cl)cc2)S1` (centres undefined), for which the values for the pIC50 in experiment [3] and in experiment [2] were 5.70 and 7.01, respectively.
The matching figures for `CC1Cc2c(OCc3cccc(-c4ccccc4)n3)ccc3c2c(c(CC(C)(C)C(=O)O)n3Cc2ccc(Cl)cc2)S1` (centres undefined): 5.60 and 7.57.
With `C[C@H]1Cc2c(OCc3ccc(-c4ccccc4)cn3)ccc3c2c(c(CC(C)(C)C(=O)O)n3Cc2ccc(Cl)cc2)[S+]1[O-]` (some centres undefined), the negative logarithm of the IC50 (pIC50) was 5.10 in experiment [3] and under 5.70 in the experiment filed under Homo sapiens.
For `CC1Cc2c(OCc3ccc(-c4ccccc4)cn3)ccc3c2c(c(CC(C)(C)C(=O)O)n3Cc2ccccn2)S1` (centres undefined), the pIC50 is 7.35 in experiment [3] and 6.96 in experiment [2].
The matching figures for `CC1Cc2c(OCc3ccc(-c4ccccc4)cn3)ccc3c2c(c(CC(C)(C)C(=O)O)n3Cc2ccc(-c3ccccc3)cn2)S1` (centres undefined): 7.52 and 7.80.
On to `COc1ccc(COc2ccc3c4c2CC(C)Sc4c(CC(C)(C)C(=O)O)n3Cc2ccc(Cl)cc2)nc1` (centres undefined), for which the pIC50 in experiment [4] is 7.40; in experiment [3], 6.40; in experiment [2], 7.92.
`CC1Cc2c(OCc3cccs3)ccc3c2c(c(CC(C)(C)C(=O)O)n3Cc2ccc(Cl)cc2)S1` (centres undefined): the negative-log IC50 (pIC50) in experiment [3] is 5.70; in experiment [2] it was 7.55.
The matching figures for `CC1Cc2c(OCc3ccc(-c4ccccc4)cn3)ccc3c2c(c(CCC(C)(C)C(=O)O)n3Cc2ccc(Cl)cc2)S1` (centres undefined): 6.48 and 7.64.
The matching figures for `CC1Cc2c(OCc3ccc(-c4ccccc4)cn3)ccc3c2c(c(CC(C)(C)C(=O)O)n3Cc2ccc(S(C)(=O)=O)cc2)S1` (centres undefined): 6.46 and 6.38.
The compound `CC1Cc2c(OCc3ccc(-c4ccccc4)cn3)ccc3c2c(c(CC(C)(C)C(=O)O)n3Cc2ccc(Cl)cc2)S1` (centres undefined) gave a pIC50 in experiment [2] of 7.66.
On to `CSc1c(CC(C)(C)C(=O)O)n(Cc2ccc(Cl)cc2)c2ccc(OCc3ccc(-c4ccccc4)cn3)cc12`, for which the negative-log IC50 (pIC50) in experiment [3] was 6.22; in experiment [2], 6.77.
`CC1Cc2c(OCc3ccc(-c4ccccc4)cn3)ccc3c2c(c(CC(C)(C)C(=O)O)n3C)S1` (centres undefined) showed a negative logarithm of the IC50 (pIC50) in experiment [2] of 6.52.
For the compound `CC(C)(Cc1c2c3c(c(OCc4ccc(-c5ccccc5)cn4)ccc3n1Cc1ccc(Cl)cc1)CCS2)C(=O)O`, the pIC50 is 6.70 in experiment [3] and 7.00 in experiment [2].
In turn, `CC1Cc2c(OCc3ccc(-c4ccccc4)cn3)ccc3c2c(c(CC(C)(C)CC(N)=O)n3Cc2ccc(Cl)cc2)S1` (centres undefined) showed a pIC50 in the experiment listed under Homo sapiens of 5.82.
As to `CCCCn1c(CC(C)(C)C(=O)O)c2c3c(c(OCc4ccc(-c5ccccc5)cn4)ccc31)CC(C)S2` (centres undefined), the results for the pIC50 in experiment [3] and in experiment [2] were 6.89 and 7.02, respectively.
The matching figures for `CC1Cc2c(OCc3ccc(-c4ccccc4)cn3)ccc3c2c(c(CC(C)(C)CC(=O)NS(=O)(=O)C(F)(F)F)n3Cc2ccc(Cl)cc2)S1` (centres undefined): 7.17 and 6.90.
The matching figures for `COc1cccc(Cn2c(CC(C)(C)C(=O)O)c3c4c(c(OCc5ccc(-c6ccccc6)cn5)ccc42)CC(C)S3)c1` (centres undefined): 7.40 and 7.55.
The matching figures for `CC1Cc2c(OCc3ccc(-c4ccccc4)cn3)ccc3c2c(c(CC(C)(C)C(=O)O)n3CC2CCCCC2)S1` (centres undefined): 7.46 and 7.48.
